Measured values: publication PMC11997999, “Uncovering α-Selectivity for Liver X Receptor Agonists for Lipotoxic Cancer Therapies” (Journal of Medicinal Chemistry, 2025)
Read-outs that look alike come from different tables or passages of the source.

Tests used:
LXRβ LBD (GST) = molecular target: T1, LXRβ LBD (GST) (Homo sapiens, UniProt P55055); assay: Time-resolved LXR FRET assay (LanthaScreen TR-FRET LXRβ assay kit); format: biochemical; details: for TR-FRET activity on LXRβ, in words: statement made for both isoforms
T1 construct: 5 nM LXRα LBD (GST); 10 nM LXRβ LBD (GST); purchased ThermoFisher Scientific PV4658
T1 sequence (P55055 222-460 limits assumed): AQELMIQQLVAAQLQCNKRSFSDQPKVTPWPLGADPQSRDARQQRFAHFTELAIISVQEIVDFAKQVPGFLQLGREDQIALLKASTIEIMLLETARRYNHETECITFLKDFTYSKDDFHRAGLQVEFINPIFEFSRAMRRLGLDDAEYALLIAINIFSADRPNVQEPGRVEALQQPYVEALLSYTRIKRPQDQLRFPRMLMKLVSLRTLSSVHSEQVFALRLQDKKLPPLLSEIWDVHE
Experimental: (§1) The biochemical TR-FRET assays were performed using the LanthaScreen TR-FRET LXRα Coactivator Assay Kit, goat (ThermoFisher Scientific, PV4655), and the LanthaScreen TR-FRET LXRβ assay kit, goat (ThermoFisher Scientific, PV4658), according to the manufacturer’s instructions using the following concentrations: 5 nM LXRα LBD (GST); 10 nM LXRβ LBD (GST); 500 nM fluorescein-TRAP220/DRIP-2; 200 nM fluorescein-D22; 10 nM Tb anti-GST antibody. The TR-FRET signals were measured after 6 h using a TECAN SPARK multimode microplate reader with the following settings: first excitation wavelength: 360 nm (bandwidth 35 nm), first emission wavelength: 485 nm (bandwidth 20 nm); second excitation wavelength: 360 nm (bandwidth 35 nm), second emission wavelength: 535 nm (bandwidth 25 nm); integration time: 200 μs; lag time: 100 μs; settle time: 0 ms.

LXRα LBD (GST) = molecular target: T2, LXRα LBD (GST) (Homo sapiens, UniProt Q13133); assay: Time-resolved LXR FRET assay (LanthaScreen TR-FRET LXRα Coactivator Assay Kit); format: biochemical; details: for TR-FRET activity on LXRα, in words: statement made for both isoforms
T2 construct: 5 nM LXRα LBD (GST); 10 nM LXRβ LBD (GST); purchased ThermoFisher Scientific PV4655
T2 sequence (Q13133 209-447 limits assumed): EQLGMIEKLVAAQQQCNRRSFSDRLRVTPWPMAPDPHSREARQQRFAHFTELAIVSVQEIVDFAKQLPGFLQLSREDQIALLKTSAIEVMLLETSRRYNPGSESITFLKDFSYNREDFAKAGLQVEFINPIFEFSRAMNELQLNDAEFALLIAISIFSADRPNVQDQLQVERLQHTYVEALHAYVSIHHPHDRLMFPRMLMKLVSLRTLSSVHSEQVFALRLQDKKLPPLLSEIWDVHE
Experimental: as §1

[1] = 10 nM LXRβ LBD (GST), read after 6 h, R^2 of fit given, read-out: TR-FRET activity (EC50) LXRβ
[2] = 5 nM LXRα LBD (GST), read after 6 h, R^2 of fit given, read-out: TR-FRET activity (EC50) LXRα
[3] = supplement list of compounds, (LXRβ), unit inferred, read-out: FRET activity b
[4] = supplement list of compounds, LXRα, unit inferred, read-out: FRET activity a

Row | SMILES | EC50 (LXRβ LBD (GST); [1]) [nM] | EC50 (LXRα LBD (GST); [2]) [nM] | TR-FRET activity on LXRβ, in words (LXRβ LBD (GST)) | TR-FRET activity on LXRα, in words (LXRα LBD (GST)) | EC50 (LXRβ LBD (GST); [3]) [nM] | EC50 (LXRα LBD (GST); [4]) [nM]
1 | COc1ccc(NC2=C(c3ccccc3)C(=O)N(Cc3ccc(C)cc3)C2=O)cc1 [Compound 17, 3-((4-Methoxyphenyl)amino)-1-(4-methylbenzyl)-4-phenyl-1H-pyrrole-2,5-dione] | 332 | 579 |  |  |  | 
2 | COc1ccc(NC2=C(c3ccccc3)C(=O)N(Cc3ccc(C(F)(F)F)cc3)C2=O)cc1 [Compound 18, 3-((4-Methoxyphenyl)amino)-4-phenyl-1-(4-(trifluoromethyl)benzyl)-1H-pyrrole-2,5-dione] | > 3000 | > 3000 | completely lost potency | completely lost potency |  | 
3 | COc1ccc(CN2C(=O)C(Nc3ccc(OC)cc3)=C(c3ccccc3)C2=O)cc1 [Compound 19, 1-(4-Methoxybenzyl)-3-((4-methoxyphenyl)amino)-4-phenyl-1H-pyrrole-2,5-dione] | 592 | 518 |  |  |  | 
4 | COc1ccc(NC2=C(c3ccccc3)C(=O)N(Cc3ccc(C(C)(C)C)cc3)C2=O)cc1 [Compound 20, 1-(4-(tert-Butyl)benzyl)-3-((4-methoxyphenyl)amino)-4-phenyl-1H-pyrrole-2,5-dione] | > 3000 | > 3000 |  |  |  | 
5 | COc1ccc(NC2=C(c3ccccc3)C(=O)N(CC3CCCCC3)C2=O)cc1 [Compound 22, 1-(Cyclohexylmethyl)-3-((4-methoxyphenyl)amino)-4-phenyl-1H-pyrrole-2,5-dione] | 2590 | 1960 |  |  |  | 
6 | COc1ccc(NC2=C(c3ccccc3)C(=O)N(C(C)(C)C)C2=O)cc1 [Compound 24, 1-(tert-Butyl)-3-((4-methoxyphenyl)amino)-4-phenyl-1H-pyrrole-2,5-dione] | 232 | 245 |  |  |  | 
7 | COc1ccc(NC2=C(c3ccccc3)C(=O)NC2=O)cc1 [Compound 25, 3-((4-Methoxyphenyl)amino)-4-phenyl-1H-pyrrole-2,5-dione] | > 3000 | > 3000 | no activity | no activity |  | 
8 | O=C1C(Nc2ccccc2)=C(c2ccccc2)C(=O)N1Cc1ccccc1 [Compound 29, 1-Benzyl-3-phenyl-4-(phenylamino)-1H-pyrrole-2,5-dione] | 265 | 312 |  |  |  | 
9 | O=C1C(Nc2ccc(Cl)cc2)=C(c2ccccc2)C(=O)N1Cc1ccccc1 [Compound 30, 1-Benzyl-3-((4-chlorophenyl)amino)-4-phenyl-1H-pyrrole-2,5-dione] | 1180 | 1150 |  |  |  | 
10 | CN(C)c1ccc(NC2=C(c3ccccc3)C(=O)N(Cc3ccccc3)C2=O)cc1 [Compound 35, 1-Benzyl-3-((4-(dimethylamino)phenyl)amino)-4-phenyl-1H-pyrrole-2,5-dione] | 91 | 71 |  |  |  | 
11 | NC(=O)c1ccc(NC2=C(c3ccccc3)C(=O)N(Cc3ccccc3)C2=O)cc1 [Compound 36, 4-((1-Benzyl-2,5-dioxo-4-phenyl-2,5-dihydro-1H-pyrrol-3-yl)amino)benzamide] | > 3000 | > 3000 | completely abolished activation | completely abolished activation |  | 
12 | O=C1C(Nc2ccc3c(c2)OCO3)=C(c2ccccc2)C(=O)N1Cc1ccccc1 [Compound 38, 3-(Benzo[d][1,3]dioxol-5-ylamino)-1-benzyl-4-phenyl-1H-pyrrole-2,5-dione] | 45 | 42 |  |  |  | 
13 | COc1cc(NC2=C(c3ccccc3)C(=O)N(Cc3ccccc3)C2=O)cc(OC)c1 [Compound 39, 1-Benzyl-3-((3,5-dimethoxyphenyl)amino)-4-phenyl-1H-pyrrole-2,5-dione] | 1320 | 737 |  |  |  | 
14 | O=C1C(Nc2ccc(N3CCSCC3)cc2)=C(c2ccccc2)C(=O)N1Cc1ccccc1 [Compound 42, 1-Benzyl-3-phenyl-4-((4-thiomorpholinophenyl)amino)-1H-pyrrole-2,5-dione] | 123 | 50 |  |  |  | 
15 | O=C1C(Nc2ccc(N3CCNCC3)cc2)=C(c2ccccc2)C(=O)N1Cc1ccccc1 [Compound 43, 1-Benzyl-3-phenyl-4-((4-(piperazin-1-yl)phenyl)amino)-1H-pyrrole-2,5-dione] | 283 | 1250 |  |  |  | 
16 | CN1CCN(c2ccc(NC3=C(c4ccccc4)C(=O)N(Cc4ccccc4)C3=O)cc2)CC1 [Compound 44, 1-Benzyl-3-((4-(4-methylpiperazin-1-yl)phenyl)amino)-4-phenyl-1H-pyrrole-2,5-dione] |  |  | no relevant activity | no relevant activity | 657 | 379

More lines, now with the values ahead:

Row | EC50 (LXRβ LBD (GST); [1]) [nM] | EC50 (LXRα LBD (GST); [2]) [nM] | TR-FRET activity on LXRβ, in words (LXRβ LBD (GST)) | TR-FRET activity on LXRα, in words (LXRα LBD (GST)) | EC50 (LXRβ LBD (GST); [3]) [nM] | EC50 (LXRα LBD (GST); [4]) [nM] | SMILES
17 | 594 | 768 |  |  |  |  | COc1ccc(NC2=C(c3ccccc3)C(=O)N(Cc3ccc(F)cc3)C2=O)cc1 [Compound 16, 1-(4-Fluorobenzyl)-3-((4-methoxyphenyl)amino)-4-phenyl-1H-pyrrole-2,5-dione]
18 | 231 | 390 |  |  |  |  | COc1ccc(NC2=C(c3ccccc3)C(=O)N(Cc3ccncc3)C2=O)cc1 [Compound 21, 3-((4-Methoxyphenyl)amino)-4-phenyl-1-(pyridin-4-ylmethyl)-1H-pyrrole-2,5-dione]
19 | 163 | 342 |  |  |  |  | COc1ccc(NC2=C(c3ccccc3)C(=O)N(CC3CC3)C2=O)cc1 [Compound 23, 1-(Cyclopropylmethyl)-3-((4-methoxyphenyl)amino)-4-phenyl-1H-pyrrole-2,5-dione]
20 | > 3000 | > 3000 | completely lost activity | completely lost activity |  |  | COc1ccc(OC2=C(c3ccccc3)C(=O)N(Cc3ccccc3)C2=O)cc1 [Compound 26, 1-Benzyl-3-(4-methoxyphenoxy)-4-phenyl-1H-pyrrole-2,5-dione]
21 | > 3000 | > 3000 | no activity | no activity |  |  | COc1ccc(CNC2=C(c3ccccc3)C(=O)N(Cc3ccccc3)C2=O)cc1 [Compound 28, 1-Benzyl-3-((4-methoxybenzyl)amino)-4-phenyl-1H-pyrrole-2,5-dione]
22 | 548 | 335 |  |  |  |  | O=C1C(Nc2ccc(F)cc2)=C(c2ccccc2)C(=O)N1Cc1ccccc1 [Compound 31, 1-Benzyl-3-((4-fluorophenyl)amino)-4-phenyl-1H-pyrrole-2,5-dione]
23 | 617 | 825 |  |  |  |  | Cc1ccc(NC2=C(c3ccccc3)C(=O)N(Cc3ccccc3)C2=O)cc1 [Compound 32, 1-Benzyl-3-phenyl-4-(p-tolylamino)-1H-pyrrole-2,5-dione]
24 | 206 | 390 |  |  |  |  | O=C1C(Nc2ccc(O)cc2)=C(c2ccccc2)C(=O)N1Cc1ccccc1 [Compound 33, 1-Benzyl-3-((4-hydroxyphenyl)amino)-4-phenyl-1H-pyrrole-2,5-dione]
25 | 133 | 278 |  |  |  |  | O=C1C(Nc2ccc(CO)cc2)=C(c2ccccc2)C(=O)N1Cc1ccccc1 [Compound 34, 1-Benzyl-3-((4-(hydroxymethyl)phenyl)amino)-4-phenyl-1H-pyrrole-2,5-dione]
26 | 84 | 139 |  |  |  |  | O=C1Cc2cc(NC3=C(c4ccccc4)C(=O)N(Cc4ccccc4)C3=O)ccc2N1 [Compound 37, 1-Benzyl-3-((2-oxoindolin-5-yl)amino)-4-phenyl-1H-pyrrole-2,5-dione]
27 | 106 | 35 |  |  |  |  | O=C1C(Nc2ccc(N3CCOCC3)cc2)=C(c2ccccc2)C(=O)N1Cc1ccccc1 [Compound 41, 1-Benzyl-3-((4-morpholinophenyl)amino)-4-phenyl-1H-pyrrole-2,5-dione]
28 |  |  | abolished all activity | abolished all activity | > 3000 | > 3000 | CC(C)(C)OC(=O)NC1CCN(c2ccc(NC3=C(c4ccccc4)C(=O)N(Cc4ccccc4)C3=O)cc2)CC1 [Compound 45, tert-Butyl-(1-(4-((1-benzyl-2,5-dioxo-4-phenyl-2,5-dihydro-1H-pyrrol-3-yl)amino)phenyl)piperidin-4-yl)carbamate]
29 |  |  |  |  |  | 618 | O=C1C(Nc2ccc(NC3CCNCC3)cc2)=C(c2ccccc2)C(=O)N1Cc1ccccc1 [Compound 47, 1-Benzyl-3-phenyl-4-((4-(piperidin-4-ylamino)phenyl)amino)-1H-pyrrole-2,5-dione]
